Where “and” joins values, the source holds several entries; their conditions need not be identical. Identical values can stand only once.
How the values were obtained:
Type in all cases: cell-based
[1] = Cytotoxicity assay (CellTiter-Glo, 72 h), MESO-1; conditions: human, MESO-1 malignant pleural mesothelioma cells, raw replicate data, read-out: MESO1 viability (%)
Method in brief: (§1)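 Cells were seeded at 1000 cells/well and allowed 4 h at 37 °C, 5% CO2 before 2-fold compound dilutions in DMSO were added (0.5% final DMSO). After 72 h exposure, viability was read by CellTiter-Glo luminescence.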

[2] = test system: malignant pleural mesothelioma MESO-1 cells; assay: Cytotoxicity assay (CellTiter-Glo, 72 h), MESO-1; conditions: raw replicate data
Method in brief: as §1

FKBP12 and mTOR = molecular target: T1, FKBP12 and mTOR (Homo sapiens, UniProt P42345+P62942); assay: Fluoppi analysis: induction of FKBP12-mTOR complex formation in transfected HeLa cells; conditions: for Foci intensity: raw data, one replicate per line
T1 construct: host or cells: HeLa cells
T1 sequence (P42345 2025-2114 limits assumed): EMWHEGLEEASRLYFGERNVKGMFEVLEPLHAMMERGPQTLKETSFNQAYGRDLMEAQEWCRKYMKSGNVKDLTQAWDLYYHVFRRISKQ
T1 sequence (P62942 whole entry): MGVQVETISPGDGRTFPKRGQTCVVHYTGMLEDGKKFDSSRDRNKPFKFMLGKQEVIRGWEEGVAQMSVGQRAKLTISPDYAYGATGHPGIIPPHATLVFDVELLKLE
Method in brief: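 Complex formation read as fluorescent foci: foci intensity over total per-cell intensity, imaged (×20, 9 fields/well) after fixation and Hoechst stain, giving EC50. Cells: HeLa transiently expressing hAG-mTOR and Ash-FKBP12, exposed to compound concentrations for 1 h at 37 °C.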

## COC1CC2CCC(C)C(O)(O2)C(=O)C(=O)N2CCCCC2C(=O)OC(C(C)CC2CCC(O)C(OC)C2)CC(=O)C(C)C=C(C)C(O)CC(=O)C(C)C=C(C)C=CC=CC=C1C (stereo not drawn) [Compound 14]
[1]; conc 9.53674e-5 uM
  viability at 72 h, 9.53674e-05 uM: 96.6%
[1]; conc 0.000190735 uM
  viability at 72 h, 0.000190735 uM: 97.8%
[1]; conc 0.00038147 uM
  viability at 72 h, 0.00038147 uM: 94.8%
[1]; conc 0.000762939 uM
  viability at 72 h, 0.000762939 uM: 104%
[1]; conc 0.00152588 uM
  viability at 72 h, 0.00152588 uM: 102%
[1]; conc 0.00305176 uM
  viability at 72 h, 0.00305176 uM: 94.6%
[1]; conc 0.00610352 uM
  viability at 72 h, 0.00610352 uM: 95.7%
[1]; conc 0.012207 uM
  viability at 72 h, 0.012207 uM: 94.6%
[1]; conc 0.0244141 uM
  viability at 72 h, 0.0244141 uM: 94.7%
[1]; conc 0.0488281 uM
  viability at 72 h, 0.0488281 uM: 96.1%
[1]; conc 0.0976562 uM
  viability at 72 h, 0.0976562 uM: 102%
[1]; conc 0.195312 uM
  viability at 72 h, 0.195312 uM: 90.3%
[1]; conc 0.390625 uM
  viability at 72 h, 0.390625 uM: 93.7%
[1]; conc 0.78125 uM
  viability at 72 h, 0.78125 uM: 79%
[1]; conc 1.5625 uM
  viability at 72 h, 1.5625 uM: 79.3%
[1]; conc 3.125 uM
  viability at 72 h, 3.125 uM: 75%
[1]; conc 6.25 uM
  viability at 72 h, 6.25 uM: 77.6%
[1]; conc 12.5 uM
  viability at 72 h, 12.5 uM: 72.5%
[1]; conc 25 uM
  viability at 72 h, 25 uM: 74.6%
[1]; conc 50 uM
  viability at 72 h, 50 uM: 59.3%
[2]; conc 9.53674e-5 uM
  MESO1 viability (%): 99.4% and 103.8%
[2]; conc 0.000190735 uM
  MESO1 viability (%): 95.6% and 99.1%
[2]; conc 0.00038147 uM
  MESO1 viability (%): 104.7% and 94.5%
[2]; conc 0.000762939 uM
  MESO1 viability (%): 96.5%
[2]; conc 0.00152588 uM
  MESO1 viability (%): 101.1% and 98.7%
[2]; conc 0.00305176 uM
  MESO1 viability (%): 99.6% and 99.1%
[2]; conc 0.00610352 uM
  MESO1 viability (%): 100.1%
[2]; conc 0.012207 uM
  MESO1 viability (%): 95.8% and 96.3%
[2]; conc 0.0244141 uM
  MESO1 viability (%): 100.3% and 106.1%
[2]; conc 0.0488281 uM
  MESO1 viability (%): 100.9% and 99.1%
[2]; conc 0.0976562 uM
  MESO1 viability (%): 96.4% and 97.3%
[2]; conc 0.195312 uM
  MESO1 viability (%): 87.1% and 89.8%
[2]; conc 0.390625 uM
  MESO1 viability (%): 94.1% and 98.7%
[2]; conc 0.78125 uM
  MESO1 viability (%): 79.4% and 79.1%
[2]; conc 1.5625 uM
  MESO1 viability (%): 71.5% and 77.1%
[2]; conc 3.125 uM
  MESO1 viability (%): 73.4% and 72.1%
[2]; conc 6.25 uM
  MESO1 viability (%): 74.3% and 73.5%
[2]; conc 12.5 uM
  MESO1 viability (%): 68.9% and 72.8%
[2]; conc 25 uM
  MESO1 viability (%): 69.4% and 68.8%
[2]; conc 50 uM
  MESO1 viability (%): 60.5% and 62.4%
FKBP12 and mTOR; Fluoppi
  PPI-inducing (binding enhancing) activity between FKBP12 and mTOR compared with rapamycin (1), in words: much less potent than 1
FKBP12 and mTOR; Fluoppi, HeLa cells, 1 h treatment, three independent biological replicates, read-out: EC50, induction of the formation of FKBP-mTOR complex
  EC50: 2130 nM
FKBP12 and mTOR; conc 9.53674e-5 uM
  Foci intensity: 0.01583 and 0.01285 and 0.01813
FKBP12 and mTOR; conc 0.000190735 uM
  Foci intensity: 0.02463 and 0.01296 and 0.02679
FKBP12 and mTOR; conc 0.00038147 uM
  Foci intensity: 0.01747 and 0.03336 and 0.009483
FKBP12 and mTOR; conc 0.000762939 uM
  Foci intensity: 0.01101 and 0.009441 and 0.01241
FKBP12 and mTOR; conc 0.00152588 uM
  Foci intensity: 0.01354 and 0.009078 and 0.03888
FKBP12 and mTOR; conc 0.00305176 uM
  Foci intensity: 0.02172 and 0.01712 and 0.01571
FKBP12 and mTOR; conc 0.00610352 uM
  Foci intensity: 0.01274 and 0.01148 and 0.02185
FKBP12 and mTOR; conc 0.012207 uM
  Foci intensity: 0.01853 and 0.03131 and 0.01125
FKBP12 and mTOR; conc 0.0244141 uM
  Foci intensity: 0.04 and 0.01743 and 0.009054

Source: article PMC7419507, “In vitro Cas9-assisted editing of modular polyketide synthase genes to produce desired natural product derivatives” (Nature Communications, 2020)
